Data on ten molecules can be found in patent US11510890B2, “Meroterpenoid compounds for use in the prevention and treatment of a neurological disorder” (SOCIETE DES PRODUITS NESTLE S.A., priority 2017, dated 2022).

Assay [1] relates to human iPSc derived into astrocyte (iCell astrocytes). In words: Lactate release dose response in human iPSc derived astrocytes. It is filed as cell-based. How it is done:
Dose response curves were established for compounds identified in the screen to stimulate lactate secretion. The EC50 values for the stimulation of lactate secretion were determined using primary human IPS cell derived astrocytes.
(§1) Differentiated human iPSCs (iCell astrocytes, and iCell cardiomyocytes) were obtained from Cellular Dynamics International (CDI, Madison, Wis., USA). iCell astrocytes were cultured in DMEM supplemented with 10% fetal calf serum and N2 complement. iCell cardiomyocytes were maintained in a medium supplied by CDI. Cell cultures were kept in a humidified atmosphere (5% CO2) at 37° C.
Dose response of compounds on lactate release from human iPSc derived into astrocyte fitted with a log (agonist) vs. response variable slope to extract […] (EC50). Mean±SEM in duplicate.
(§2) The toxicity expressed in log IC50 (ATP content after 24 hours compound treatment on human iPSc derived into cardiomyocyte) was compared against the lactate release in log EC50 (lactate secretion after 2 hours compound treatment in human iPSc derived into astrocytes).

The subject of assay [2] is Human astrocytoma cell line CCF-STTG1. In words: Lactate release screening assay (fluorescent enzymatic assay). It is filed as cell-based. The settings on record: for Primary screen %: CCF-STTG1, supernatants after 2 hours. As to the method:
Human astrocytoma cell line CCF-STTG1 was cultured at 37° C. in a humidified atmosphere (5% CO2) in RPMI-1640 medium supplemented with 10% (v/v) heat-inactivated fetal calf serum, 50 μg/ml penicillin and 100 μg/ml streptomycin.
CCF-STTG1 were seeded in 384-well plates. Two days later, the cells were washed 3 times and incubated 30 min in Krebs-Ringer bicarbonate HEPES (KRBH) buffer containing (in mM): 140 NaCl, 3.6 KCl, 0.5 NaH2PO4, 0.5 MgSO4, 1.5 CaCl2, 10 HEPES, 5 NaHCO3 (pH7.4) supplemented with 2.5 mM glucose. Then, the cells were maintained in the buffer in the presence of tested compounds. Supernatants were collected after 2 hours and were assessed for lactate concentration. Lactate concentration in the supernatants were determined by fluorescent enzymatic assay. Samples were diluted in assay reagent containing (in mM or U/ml)): 100 sodium phosphate (pH7.5), 0.1 EDTA, 0.05 Amplex UltraRed, 0.1 Lactate oxidase, 1.5 Horseradish Peroxidase.
Fluorescence emission was measured at 600 nm after an excitation at 500 nm using Bioteck Synergie Neo multimode reader after 30 min at room temperature protected from direct light.

For assay [3], the system named is human iPSc derived into cardiomyocyte (iCell Cardiomyocytes). In words: Toxicity - ATP content (CellTiter-Glo). The class given is cell-based. How it is done: as §1
iCell Cardiomyocytes were seeded in 384-well plates. Eight days later cells were treated for 24 hours with compounds. Cell viability was determined by the quantification of intracellular ATP after cell lysis. ATP was used as an indicator of metabolically active cells. ATP was measured using a luminescent cell viability assay (CellTiter-Glo®; […]). Luminescence was measured after 20 min in a Bioteck Synergie Neo multimode reader.
Toxicity of the meroterpenoid compounds were evaluated in human IPS cell derived cardiomyocytes by measuring total ATP in cell lysates.
Dose response of compounds on human iPSc derived into cardiomyocyte with evaluation of the ATP level using cell titer glow. Results were normalized between untreated cells (100%) and positive control (0%).
as §2
In general terms: In ATP-based viability assays light output follows the ATP content of the culture.

Another assay has as its system CCF-STTG1. In words: Lactate release orthogonal assay (spectrophotometric enzymatic assay). It is filed as cell-based, human. Particulars: CCF-STTG1, supernatants after 2 hours, colorimetric kit. How it is done: CCF-STTG1 were seeded in 384-well plates. Two days later, the cells were washed 3 times and incubated 30 min in Krebs-Ringer bicarbonate HEPES (KRBH) buffer containing (in mM): 140 NaCl, 3.6 KCl, 0.5 NaH2PO4, 0.5 MgSO4, 1.5 CaCl2, 10 HEPES, 5 NaHCO3 (pH7.4) supplemented with 2.5 mM glucose. The cells were maintained in the buffer in the presence of tested compounds. Supernatants were collected after 2 hours and assessed for lactate concentration. Lactate concentration in the supernatant was determined by a spectrophotometric enzymatic assay (lactate colorimetric assay kit II no. K627; BioVision, Milpitas, Calif. USA). In this kit, lactate is oxidized by lactate dehydrogenase to generate a product which interacts with a probe to produce a color (λmax=450 nm).
Absorbance was measure after 30 min at 450 nm using Bioteck Synergie Neo multimode reader. Background absorbance obtained in the absence of kit was subtracted from each value.
The stimulation of lactate secretion after treatment with meroterpenoid compounds was confirmed in an orthogonal assay based on another enzyme to measure lactate. The results of the lactate release measurement during the drug discovery screen for each compound and the results of lactate release measure with the orthogonal assay were correlated.

Where [4] appears, read: lactate secretion after 2 hours compound treatment, read-out: Astrocytes Lactate release EC50.
Where [5] appears, read: log of EC50 in M, given negative, 2 hours compound treatment.
[6] abbreviates: ATP content after 24 hours compound treatment, read-out: Cardiomyocytes Toxicity IC50.
Where [7] appears, read: log of IC50 in M, given negative, ATP content after 24 hours.

Where two headings read alike, the source gives them in different places.

As for `C/C(=C\Cc1c(O)c(Cl)c(C)c(C=O)c1O)CC[C@@]1(C)[C@H](C)CCC(=O)[C@@H]1C` [22562-67-0, Ilicicolin C], in assay [1] (setting [4]), the EC50 amounted to 150 nM. The “Astrocytes Lactate release logEC50” value in assay [1] (setting [5]) is given as −6.8. In assay [2], the Primary screen % turned out to be 70% and the Reconfirmation % is 74%. In assay [3] (setting [6]), the 50% inhibitory concentration (IC50) (usually the concentration at which inhibition is half-maximal) came out at 71 µM. The “Cardiomyocytes Toxicity log IC50” value in assay [3] (setting [7]) is listed as −4.2. The Orthogonal assay % in the assay on CCF-STTG1 is on record as 84%.
For `C/C(=C\Cc1c(O)cc(C)c(C=O)c1O)CC[C@@]1(C)[C@H](C)CCC(=O)[C@@H]1C` [22562-68-1, Antibiotic LL-Z 1272ε], the EC50 in assay [1] (setting [4]) is 2600 nM. Further, in assay [1] (setting [5]), the “Astrocytes Lactate release logEC50” value is given as −5.6. In assay [2], the Primary screen % was 72% and the Reconfirmation % is reported as 83%. For the same molecule, the IC50 in assay [3] (setting [6]) is 81 µM. The “Cardiomyocytes Toxicity log IC50” value in assay [3] (setting [7]) is −4.1. Also, in the assay with CCF-STTG1, the Orthogonal assay % was 68%.
In the case of `CC(/C=C/C1(C)C(C)C=CC(=O)C1C)=C\Cc1c(O)c(Cl)c(C)c(C=O)c1O` (stereo not drawn) [22581-11-9], the EC50 in assay [1] (setting [4]) was 14 nM. In addition, the “Astrocytes Lactate release logEC50” value in assay [1] (setting [5]) is recorded as −7.9. In addition, in assay [2], the Primary screen % worked out at 68% and the Reconfirmation % is 50%. Moreover, the IC50 in assay [3] (setting [6]) is 3.2 µM. In addition, the “Cardiomyocytes Toxicity log IC50” value in assay [3] (setting [7]) is listed as −5.5. In addition, in the assay on CCF-STTG1, the Orthogonal assay % was determined as 61%.
With `CC(/C=C/[C@@]1(C)[C@H](C)CCC(=O)[C@@H]1C)=C\Cc1c(O)c(Cl)c(C)c(C=O)c1O` [26166-39-2, Ascochlorin], the EC50 in assay [1] (Homo sapiens, iPSC, lactate secretion after 2 hours compound treatment, read-out: Astrocytes Lactate release EC50) is 11 nM; in assay [1] (Homo sapiens, iPSC, log of EC50 in M, given negative, 2 hours compound treatment, read-out: Astrocytes Lactate release logEC50 (converted)) it was 12.6 nM. Moreover, the concentration for half-maximal inhibition (IC50) in assay [3] (Homo sapiens, iPSC, ATP content after 24 hours compound treatment, read-out: Cardiomyocytes Toxicity IC50) was 1.2 µM; in assay [3] (Homo sapiens, iPSC, log of IC50 in M, given negative, ATP content after 24 hours, read-out: Cardiomyocytes Toxicity log IC50 (converted)) it was 1.26 µM.
As to `CC(=O)OC(C[C@@]1(C)[C@H](C)CCC(=O)[C@@H]1C)/C(C)=C/Cc1c(O)c(Cl)c(C)c(C=O)c1O` (stereo partly drawn) [38965-84-3, Chloronectrin], in assay [2], the Primary screen % is reported as 104% and the Reconfirmation % is 97%. Moreover, the IC50 in assay [3] (setting [6]) is 30 µM. For the same molecule, the “Cardiomyocytes Toxicity log IC50” value in assay [3] (setting [7]) was −4.5. Moreover, in the assay on CCF-STTG1, the Orthogonal assay % is 68%.
For `CC(C)=CCC/C(C)=C/Cc1c(O)cc(CCc2ccccc2)c(C(=O)O)c1O` [73436-04-1, 4-O-Demethylamorfrutin B], the EC50 in assay [1] (setting [4]) is 10000 nM. In assay [1] (setting [5]), the “Astrocytes Lactate release logEC50” value is given as −5.0. For the same molecule, in assay [2], the Primary screen % is 82% and the Reconfirmation % worked out at 77%. For the same molecule, the Orthogonal assay % in the assay on CCF-STTG1 was 68%.
Consider `COc1cc(CCc2ccccc2)c(C(=O)O)c(O)c1CC=C(C)C` [80489-90-3, Amorfrutin], for which the EC50 in assay [1] (setting [4]) amounted to 3200 nM. Further, in assay [1] (setting [5]), the “Astrocytes Lactate release logEC50” value is given as −5.5. For the same molecule, in assay [2], the Primary screen % was determined as 85% and the Reconfirmation % came out at 122%. Also, the IC50 in assay [3] (setting [6]) amounted to 47 µM. In assay [3] (setting [7]), the “Cardiomyocytes Toxicity log IC50” value is listed as −4.3. Besides, the Orthogonal assay % in the assay on CCF-STTG1 turned out to be 80%.
For `CC(/C=C/[C@@]1(C)[C@H](C)CCC(=O)[C@@H]1C)=C\Cc1c(O)cc(C)c(C=O)c1O` [165187-16-6, Cylindrol B], in assay [1] (setting [4]), the EC50 came out at 6700 nM. Besides, in assay [1] (setting [5]), the “Astrocytes Lactate release logEC50” value is listed as −5.2. Further, in assay [2], the Primary screen % is recorded as 100% and the Reconfirmation % is reported as 61%. Further, the 50% inhibitory concentration (IC50) in assay [3] (setting [6]) was determined as 31 µM. Moreover, the “Cardiomyocytes Toxicity log IC50” value in assay [3] (setting [7]) is −4.5. Besides, the Orthogonal assay % in the assay on CCF-STTG1 is listed as 67%.
Consider Ilicicolin F [22738-98-3], for which, in assay [1] (setting [4]), the EC50 is 27 nM. Further, the “Astrocytes Lactate release logEC50” value in assay [1] (setting [5]) was −7.6. In assay [2], the Primary screen % came out at 96% and the Reconfirmation % came to 142%. Further, in assay [3] (setting [6]), the IC50 was determined as 7 µM. Also, the “Cardiomyocytes Toxicity log IC50” value in assay [3] (setting [7]) is given as −5.2. Moreover, in the assay on CCF-STTG1, the Orthogonal assay % was determined as 119%.
As for Lasalocid [25999-31-9], in assay [1] (setting [4]), the EC50 turned out to be 4400 nM. For the same molecule, in assay [1] (setting [5]), the “Astrocytes Lactate release logEC50” value is −5.4. Also, in assay [2], the Primary screen % is listed as 88% and the Reconfirmation % is given as 73%. In addition, the IC50 in assay [3] (setting [6]) was 11 µM. Besides, in assay [3] (setting [7]), the “Cardiomyocytes Toxicity log IC50” value was −4.9. Moreover, the Orthogonal assay % with CCF-STTG1 is recorded as 53%.
